Reference: patent publication US12577213B2 (NINGBO COMBIREG PHARMACEUTICAL TECHNOLOGY CO., LTD., priority 2020, dated 2026)

Legend:
LOX-IMVI (melanoma) = experiment: NCI method SRB growth inhibition, LOX-IMVI; format: cell-based; settings: Homo sapiens, treated 48 hours, SRB stain
Summary of the method: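 Cells were exposed to compound for 48 h alongside a time-zero plate fixed at dosing and a 48 h vehicle control, then stained with sulforhodamine B and read at 515 nm. GI50 is the concentration giving 50% growth relative to time-zero and vehicle ODs; TGI where test OD equals time-zero OD; LC50 where 50% of starting cells are killed.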

[1] = tested on: xenograft of human lung cancer NCI-H522 in nude mice; experiment: Xenograft tumor growth inhibition, NCI-H522; format: in vivo, BALB/c nude mice; settings: iv., q4d × 6
Description: (§1) The embodiment compound was prepared as a 40× stock solution of DMSO and diluted to the administered concentration with saline containing 2.5% Tween 80 (Tween 80) used before;
(§2) Male BALB/c nude mice, 4-5 weeks old, were purchased from Beijing Vital River Laboratory Animal Technology Co., Ltd, with a license No. SCXK(Beijing)2012-0001, and the mice were bred in the SPF-class laboratory animal center of Tsinghua University. The tumor lines used in the experiment were: xenograft of human lung cancer NCI-H522 in nude mice, xenograft of human colon cancer HCT-116 in nude mice.
(§3) Tumor-bearing animals with good tumor growth and overall condition were selected and sacrificed by cervical dislocation. The tumors were removed under aseptic condition, cut into tumors with 2-3 mm diameter by a scalpel, and inoculated subcutaneously behind the armpit of nude mice by trocar. The tumors grew naturally and were randomly grouped after the tumor volume grew to 105 mm^3, and the administration date of grouping was set as D0 (Day 0).
(§4) Grouping experiment, with 7-9 animals in each group, starting from now on, administration was started according to the weight of the animals. During the administration process, the long, short diameter of the tumors and weight of animals were measured every 2-3 days, and the tumor size was calculated by the formula: (½)×long diameter×(short diameter)^2, and the experiment was ended on the 27th day (D27) after grouping. At the end of the experiment, the animals were sacrificed by cervical dislocation, the tumors were peeled off and weighed, and the inhibitory rates of the drugs on tumor growth were calculated. Tumor volume (TV) and relative tumor volume (RTV) were calculated. T test was used to compare the statistical significance of the differences in tumor weight, tumor volume and RTV of the animals in each group.
(§5) Calculation formulas are as follows: average tumor weight in the vehicle control group−average tumor weight in the treatment group Tumor inhibition rate (%)=(average tumor weight in the vehicle control group−average tumor weight in the treatment group)[…](average tumor weight in the vehicle control)×100. Tumor volume (TV)=(length×width^2)/2. Relative tumor volume (RTV)=Vt/Vo (wherein, Vo is the TV measured at the time of grouping and administration, and Vt is the TV at each subsequent measurement).
(§6) [formula] • Efficacy evaluation criteria: T/C (%)>40 is invalid; • T/C (%)≤40, and P<0.05 is effective after statistical processing. 4.

[2] = tested on: xenograft of human colon cancer HCT-116 in nude mice; experiment: Xenograft tumor growth inhibition, HCT-116; format: in vivo, BALB/c nude mice; settings: for Relative tumor proliferation rate (%) / Tumor weight inhibition rate (%): HCT116 xenograft; for efficacy evaluation on growth of HCT-116 xenograft (in words): criteria: T/C (%)≤40 and P<0.05 is effective
Description: as §1, §2, §3, §4, §5, §6

[3] = tested on: breast cancer cell line SUM159 sphere; experiment: Breast cancer stem cell sphere formation; format: cell-based, human; settings: 50 nM; for formation of the sphere after cell passage: 5 days of drug treatment, then passage
Description: The inhibitory effects of embodiment compounds 5, 7, 11, 13, 14, 20 and 21 on the formation of breast cancer cell line SUM159 sphere are described as follows.
The breast cancer cell line SUM159 sphere was cultured with serum-free medium in an ultra-low adsorption plate, the basal medium was DMEM/F12 (without phenol red), and B27 (without vitamin A) (1×), EGF (20 ng/ml), bFGF (20 ng/ml) and insulin (insulin, 5 ug/ml) were added.
An equal number (4000) of SUM159 cells per well were inoculated into an ultra-low adsorption 24 plate, and the sphere was photographed after 5 days of culture, replaced with fresh medium, and treated with drugs at certain concentrations, respectively. Compounds 5, 7, 11, 13, 14, 20 and 21 were evaluated in this experiment at 50 nM, respectively. The effect of the drug on the sphere phenotype could be observed after about 3 days of drug treatment. The sphere was photographed again after 5 days of drug treatment, and then the sphere was passaged. The sphere was photographed again after 7 days of passage.
The differences of the photographs taken in three different stages were counted and compared, and the killing effect of the tested compounds on SUM159 sphere was evaluated through the differences of sphere formation after passage, thus reflecting the inhibitory effects of different compounds on breast cancer stem cells.

[4] = 20 mg/kg, intravenous injection every other day × 3
[5] = 16 mg/kg, intravenous injection every other day × 9
[6] = 20 mg/kg, intravenous injection every other day × 9

## [2H]C([2H])([2H])Oc1cc(C(=O)Nc2cc3c(cc2Oc2cc(C)cc(C)c2)C(=O)N[C@@H](CC(=O)N(C([2H])([2H])C([2H])([2H])[2H])C([2H])([2H])C([2H])([2H])[2H])C(=O)N3)c(Br)c(OC([2H])([2H])[2H])c1OC([2H])([2H])[2H] [Compound 5, (S)-2-bromo-N-[3-[2-[bis(pentadeuteroethyl)amino]-2-oxoethyl]-7-(3,5-dimethylphenoxy)-2,5-dioxo-2,3,4,5-tetrahydro-1H-benzo[e][1,4]diazepin-8-yl]-3,4,5-tris(trideuteromethoxy)benzamide]
LOX-IMVI (melanoma)
  GI50: < 5 nM
[1]; 12.5 mg/kg
  T/C (%): 31.7%
  Tumor weight inhibition (%): 72.03%
[1]; 25 mg/kg
  T/C (%): 21.2%
  Tumor weight inhibition (%): 84.20%
[1]; 50 mg/kg
  T/C (%): 14.2%
  Tumor weight inhibition (%): 90.02%
[2]; [4]
  Relative tumor proliferation rate (%): 34%
  Tumor weight inhibition rate (%): 69.6%
[2]
  efficacy evaluation on growth of HCT-116 xenograft (in words): inhibit the growth
[3]
  killing effect on SUM159 sphere: strong killing effect
  formation of the sphere after cell passage: significantly reduced

## [2H]C([2H])([2H])Oc1cc(C(=O)Nc2cc3c(cc2Oc2cc(C)cc(C)c2)C(=O)N(C)[C@@H](CC(=O)N(C)C)C(=O)N3)c(Br)c(OC([2H])([2H])[2H])c1OC([2H])([2H])[2H] [Compound 16, (S)-2-bromo-N-[3-[2-(dimethylamino)-2-oxoethyl]-7-(3,5-dimethylphenoxy)-4-methyl-2,5-dioxo-2,3,4,5-tetrahydro-1H-benzo[e][1,4]diazepin-8-yl]-3,4,5-tris(trideuteromethoxy)benzamide]
LOX-IMVI (melanoma)
  GI50: < 5 nM
[2]; [5]
  Relative tumor proliferation rate (%): 38%
  Tumor weight inhibition rate (%): 63.4%
[2]
  efficacy evaluation on growth of HCT-116 xenograft (in words): inhibit the growth

## [2H]C([2H])([2H])Oc1cc(C(=O)Nc2cc3c(cc2Oc2cc(C)cc(C)c2)C(=O)N[C@@H](CC(=O)N(C)C)C(=O)N3)c(Br)c(OC([2H])([2H])[2H])c1OC([2H])([2H])[2H] [Compound 20, (S)-2-bromo-N-[3-[2-(dimethylamino)-2-oxoethyl]-7-(3,5-dimethylphenoxy)-2,5-dioxo-2,3,4,5-tetrahydro-1H-benzo[e][1,4]diazepin-8-yl]-3,4,5-tris(trideuteromethoxy)benzamide]
LOX-IMVI (melanoma)
  GI50: < 5 nM
[2]; [6]
  Relative tumor proliferation rate (%): 30%
  Tumor weight inhibition rate (%): 75.4%
[2]
  efficacy evaluation on growth of HCT-116 xenograft (in words): inhibit the growth
[3]
  killing effect on SUM159 sphere: strong killing effect
  formation of the sphere after cell passage: significantly reduced
